Read-outs that look alike come from different tables or passages of the source. A value given as a limit tells only on which side of the number the result lay.

Ten compounds from article PMC9267968, “Continued Structural Exploration of Sulfocoumarin as Selective Inhibitor of Tumor-Associated Human Carbonic Anhydrases IX and XII” (Molecules, 2022) can be followed below.

One data set concerns the target T1, hCA IX (Homo sapiens, UniProt Q16790).
T1 construct: made in house
Description: stopped-flow CO2 hydrase assay, hCA IX inhibition. In kind it is biochemical. Conditions: 6 h incubation of enzyme and inhibitor; mean from 3 different assays, errors 5-10%; read-out: KI (nM) CA IX. As for the experimental part:
(§1) For this reason, we herein report a 6 h incubation time instead.
(§2) An Applied Photophysics stopped-flow instrument was used for assaying the CA catalyzed CO2 hydration activity. […] The uncatalyzed rates were determined in the same manner and subtracted from the total observed rates. Stock solutions of inhibitor (0.1 mM) were prepared in distilled–deionized water and dilutions up to 0.01 nM were done thereafter with the assay buffer. Inhibitor and enzyme solutions were preincubated together for 6h at room temperature prior to assay, in order to allow for the formation of the E-I complex. The inhibition constants were obtained by non-linear least-squares methods using PRISM 3 and the Cheng–Prusoff equation and represent the mean from at least three different determinations. […] All CA isoforms were recombinant ones obtained in-house.

In a further data set the target is T2, hCA II (Homo sapiens, UniProt P00918).
T2 construct: made in house
Description: stopped-flow CO2 hydrase assay, hCA II inhibition. In kind it is biochemical. Conditions: 6 h incubation of enzyme and inhibitor; mean from 3 different assays, errors 5-10%; read-out: KI (nM) CA II. The protocol:
as §1, §2

The target of a further data set is T3, hCA I (Homo sapiens, UniProt P00915).
T3 construct: made in house
The data set is described as follows: stopped-flow CO2 hydrase assay, hCA I inhibition. In kind it is biochemical. Conditions: 6 h incubation of enzyme and inhibitor; mean from 3 different assays, errors 5-10%; read-out: KI (nM) CA I. As for the experimental part:
as §1, §2

Another data set has as its target T4, hCA XII (Homo sapiens, UniProt O43570).
T4 construct: made in house
The data set is described as follows: biochemical. As for the experimental part: as §1, §2

[1] abbreviates: 6 h incubation of enzyme and inhibitor, mean from 3 different assays, errors 5-10%, read-out: KI (nM) CA XII.

T3 sequence (P00915 whole entry): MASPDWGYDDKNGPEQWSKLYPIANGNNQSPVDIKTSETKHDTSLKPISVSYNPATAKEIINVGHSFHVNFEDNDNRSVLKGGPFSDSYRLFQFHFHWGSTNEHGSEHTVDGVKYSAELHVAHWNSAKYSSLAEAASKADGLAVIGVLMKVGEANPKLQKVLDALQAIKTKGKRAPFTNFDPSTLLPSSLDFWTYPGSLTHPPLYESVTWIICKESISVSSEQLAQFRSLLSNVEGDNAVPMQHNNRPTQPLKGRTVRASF
T4 sequence (O43570 25-354): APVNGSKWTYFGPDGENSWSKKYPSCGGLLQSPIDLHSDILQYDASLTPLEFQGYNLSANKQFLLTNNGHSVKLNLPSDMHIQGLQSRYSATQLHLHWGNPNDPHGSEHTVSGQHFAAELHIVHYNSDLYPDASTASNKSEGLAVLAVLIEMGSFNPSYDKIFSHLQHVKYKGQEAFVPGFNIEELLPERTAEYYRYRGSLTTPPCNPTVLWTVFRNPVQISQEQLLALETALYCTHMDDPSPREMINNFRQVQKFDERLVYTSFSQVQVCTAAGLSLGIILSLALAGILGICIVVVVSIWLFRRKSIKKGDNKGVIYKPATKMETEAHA

In general, Ki refers to the equilibrium dissociation constant of an inhibitor or competing ligand from its target. The melting point is the temperature, or range, at which the solid turns liquid. Compound `O=S1(=O)C=Cc2ccc(OCc3cccc(F)c3)cc2O1` [Compound 15, 7-((3-Fluorobenzyl)oxy)benzo[e][1,2]oxathiine 2,2-dioxide] displayed a melting point of 180 to 183 °C. Besides, the Ki at hCA IX was determined as 28.4 nM. Further, at hCA II, the Ki was over 100000 nM. The Ki at hCA I was over 100000 nM. In addition, the Ki at hCA XII (setting [1]) turned out to be 46 nM.

For the compound `COc1ccc2c(c1)OS(=O)(=O)C(C(=O)Nc1ccc(Br)cc1)=C2` [Compound 44, N-(4-bromophenyl)-7methoxybenzo[e][1,2]oxathiine-3-carboxamide 2,2-dioxide], the melting point was in the range of 272 to 275 °C. Also, the Ki at hCA IX was found to be 51500 nM. Also, at hCA II, the Ki is over 100000 nM. Moreover, at hCA I, the Ki is over 100000 nM. The same compound registered a Ki on hCA XII of 42500 nM.

Consider `COc1cccc(NC(=O)C2=Cc3ccccc3OS2(=O)=O)c1` [Compound 42, N-(3-methoxyphenyl)benzo[e][1,2]oxathiine-3-carboxamide 2,2-dioxide], for which the melting point is 219 to 221 °C. The Ki on hCA IX turned out to be 5420 nM. The inhibitory constant (Ki) at hCA II is over 100000 nM. Moreover, the inhibition constant Ki at hCA I was over 100000 nM. Further, affinity on hCA XII was put at a Ki of 3380 nM.

For the compound `O=S1(=O)Oc2cc(O)ccc2-c2ccccc21` [Compound 26, 3-Hydroxydibenzo[c,e][1,2]oxathiine 6,6-dioxide], the melting point lay in the range of 181 to 182 °C. Also, the Ki on hCA IX was determined as 559 nM. Moreover, at hCA II, the Ki was determined as 9000 nM. The inhibitory constant (Ki) at hCA I was 42600 nM. On hCA XII (setting [1]), the Ki stood at 414 nM.

In turn, `CC1=CS(=O)(=O)Oc2cc(OCc3ccc([N+](=O)[O-])cc3)ccc21` [Compound 21, 7-((4-nitrobenzyl)oxy)-4-methylbenzo[e][1,2]oxathiine 2,2-dioxide] displayed a melting point of 247 to 249 °C. For the same compound, at hCA IX, the Ki worked out at 89.7 nM. Moreover, the Ki on hCA II was over 100000 nM. Also, at hCA I, the Ki was over 100000 nM. Moreover, the inhibition constant Ki on hCA XII (setting [1]) amounted to 101 nM.

As for `O=[N+]([O-])c1ccc(COc2ccc3c(c2)OS(=O)(=O)c2ccccc2-3)cc1` [Compound 30, 3-((4-nitrobenzyl)oxy)dibenzo[c,e][1,2]oxathiine 6,6-dioxide], the melting point is 264 to 266 °C. Moreover, the Ki on hCA IX was determined as 965 nM. Moreover, at hCA II, the Ki is over 100000 nM. For the same compound, the Ki on hCA I was over 100000 nM. Also, the Ki on hCA XII (setting [1]) came to 1060 nM.

On to `O=C(O)C1=Cc2ccccc2OS1(=O)=O` [Compound 36, benzo[e][1,2]oxathiine-3-carboxylic acid 2,2-dioxide], for which the melting point fell in the range of 105 to 107 °C. Besides, the Ki at hCA IX turned out to be 500 nM. In addition, the Ki on hCA II came to 996 nM. Further, the Ki at hCA I was 4620 nM. Also, the inhibition constant Ki on hCA XII stood at 564 nM.

In the case of `COc1cccc(NC(=O)C2=Cc3ccc(OC)cc3OS2(=O)=O)c1` [Compound 47, N-(3-methoxyphenyl)-7-methoxybenzo[e][1,2]oxathiine-3-carboxamide 2,2-dioxide], the melting point was 222 to 225 °C. Besides, on hCA IX, the Ki was found to be 6560 nM. Besides, on hCA II, the Ki is over 100000 nM. Also, the inhibition constant (Ki) on hCA I was over 100000 nM. Moreover, on hCA XII, the Ki was 2470 nM.

`O=S1(=O)Oc2cc(OCc3ccc(F)cc3)ccc2-c2ccccc21` [Compound 28, 3-((4-fluorobenzyl)oxy)dibenzo[c,e][1,2]oxathiine 6,6-dioxide] showed a melting point of 268 to 269 °C. In addition, at hCA IX, the Ki is 755 nM. In addition, the inhibition constant (Ki) on hCA II is over 100000 nM. On hCA I, the Ki is over 100000 nM. For the same compound, at hCA XII (setting [1]), the Ki worked out at 654 nM.

Turning to `O=C(Nc1cccc(Br)c1)C1=Cc2ccccc2OS1(=O)=O` [Compound 40, N-(3-bromophenyl)benzo[e][1,2]oxathiine-3-carboxamide 2,2-dioxide], the melting point was 228 to 229 °C. On hCA IX, the Ki was found to be 40800 nM. In addition, the Ki on hCA II is over 100000 nM. Also, the Ki on hCA I was over 100000 nM. On hCA XII, affinity was put at a Ki of 78300 nM.
